From patent US9718781B2, “Methods and compounds for treating proliferative disorders and viral infections” (University College Dublin, National University of Ireland, …, priority 2012, dated 2017)
Several values for one entry are separate records, joined by “and”; a condition that tells them apart may be missing. Equal values may be shown once. Read-outs that look alike come from different tables or passages of the source.

Columns and labels:
TPα = target: T1, TPα (Homo sapiens, UniProt P21731); assay: U46619-induced [Ca2+]i mobilization in HEK.TPα cells; assay type: cell-based; conditions: for IC50: HEK.TPα cells, 1 μM U46619, Table 2, read-out: IC50 data for U46619-mediated [Ca2+]i mobilization, TPα; for TPα:TPβ Selectivity Ratio: IC50 TPα/IC50 TPβ
T1 construct: expressed in transfected cells
T1 sequence (P21731 1-343): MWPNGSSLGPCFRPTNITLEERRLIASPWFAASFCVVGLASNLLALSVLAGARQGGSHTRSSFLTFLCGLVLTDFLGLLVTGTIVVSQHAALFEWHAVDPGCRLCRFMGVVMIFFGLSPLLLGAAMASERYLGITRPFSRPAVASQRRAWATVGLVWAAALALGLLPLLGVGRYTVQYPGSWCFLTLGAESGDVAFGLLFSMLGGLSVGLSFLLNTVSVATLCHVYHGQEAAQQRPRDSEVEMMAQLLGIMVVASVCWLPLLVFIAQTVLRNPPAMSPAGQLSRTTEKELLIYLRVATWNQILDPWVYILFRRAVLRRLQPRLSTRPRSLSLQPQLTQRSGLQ
Excerpt: (§1) An appropriate functional test for the evaluation of the agonistic and/or antagonistic potency of the compounds of the invention is the determination of calcium flux. Both TPα and TPβ are coupled to the G-protein Gαq. Therefore, stimulation of these receptors ultimately leads to a release of intracellular calcium ([Ca^2+]i) from intracellular stores. Consequently, the determination of [Ca^2+]i flux represents an appropriate functional test for the evaluation of the agonistic/antagonistic potency of compounds of the invention. Calcium can be measured using a molecule characterized by the covalent combination of a Ca^2+ chelating group and a fluorophore group. The Ca^2+ binding properties of these indicators are formed by the presence of a tetracarboxylic acid core as found for example in EGTA (Ethylene Glycol bis(2-aminoethyl)Tetraacetic Acid). Binding of Ca^2+ produces a wavelength shift in either the excitation or emission fluorescence spectra or a change in the emission intensity. Whereas the Ca^2+ binding to EGTA is pH dependent, recent dyes are designed from an EGTA derivative, BAPTA (1,2-Bis(2-Aminophenoxy)ethane-N,N,N′,N′-Tetraacetic Acid). Loading of these dyes inside cells commonly uses esterified forms (acetoxymethyl ester), which are able to cross the cell membranes and are subsequently hydrolyzed by esterases inside the cell.
(§2) Estimation of [Ca^2+]i flux is calculated from the fluorescence signal (F). For calibration, the maximal fluorescence (Fmax, Ca^2+-saturated form of the dye) as well as minimal fluorescence (Fmin, Ca^2+-free form of the dye) must be determined. These parameters are determined usually in situ after the experiment, for example by subsequent addition to the mixture of a cell-disrupting agent that releases all Ca^2+ such as Triton X100 and a potent Ca^2+-chelating agent such as EGTA. After subtraction of background fluorescence, [Ca^2+]; flux can be calculated for non-ratiometric indicators.
(§3) Intracellular [Ca^2+]; fluxes were measured using a fluorescence plate reader following a modified protocol of Kassack et al., ‘Quantitative comparison of functional screening by measuring intracellular Ca^2+ with radioligand binding at recombinant human dopamine receptors’, AAPS Pharmsci, 2002, 4(4); 102-111, in cell lines (e.g. HEK293 or other cell type) endogenously-expressing or over-expressing either TPα, TPβ or any other receptor or protein to be screened.
(§4) By way of example, HEK 293 cells which have been grown for 3-4 days in normal growth media (minimum essential media containing 10% FBS and 2 mmol/1 L-glutamine), under normal growth conditions (37° C., in humidified 5% CO2 atmosphere) are washed and harvested in KREBs-HEPES buffer (118 mM NaCl, 4.7 mM KCl, 1.2 mM MgSO4, 1.2 mM KH2PO4, 4.2 mM NaHCO3, 11.7 mM D-glucose, 1.3 mM CaCl2, 10 mM HEPES, pH 7.4). Cells are then incubated with 3 μM Fluo-4 in KREBs-HEPES buffer containing 1% Pluoronic F-127, for 1 hr at 25° C. with agitation. Then, cells are washed in KREBs-HEPES buffer containing 0.5% BSA and re-suspended at a final concentration of 3×10^5 cells/ml. Approx. 5.4×10^4 cells per well are plated in a 96-well plate and pre-incubated with test compounds for 10 m prior to measuring the fluorescence intensity at 520 nm for 25 seconds at 1 s intervals to monitor baseline using the Fluoroskan Ascent. Agonist (e.g., 1 μM U46619) is injected into separate wells by the automatic pipettor and fluorescence intensity is monitored at 520 nm for 75 seconds at 1 s intervals. Thereafter, Triton X100 and EGTA are added sequentially where Fmax refers to maximal fluorescence intensity measured after permeabilization of the cells with 2% Triton X100 and Fmin refers to fluorescence intensity measured after addition of 1 mM EGTA.
(§5) The dye Fluo-4 has its excitation peak at 480 nm, in the visible spectra, which spare cells to be damaged by UV (340-360 nm) stimulation and reduces auto-fluorescence of cells. […]

TPβ = target: T2, TPβ (Homo sapiens, UniProt P21731); assay: U46619-induced [Ca2+]i mobilization in HEK.TPβ cells; assay type: cell-based; conditions: HEK.TPβ cells; 1 μM U46619; Table 2; read-out: IC50 data for U46619-mediated [Ca2+]i mobilization, TPβ
T2 construct: expressed in transfected cells
Excerpt: as §1, §2, §3, §4, §5

human platelets [1] = assay: U46619-induced human platelet aggregation ex vivo (platelet rich plasma); assay type: cell-based; conditions: human platelets ex vivo, Table 3, read-out: IC50 data for inhibition of U46619-induced platelet aggregation
Excerpt: A modification of the turbidimetric method originally developed by Born & Cross (Born, G. V. and Cross, M. J., The Aggregation of Blood Platelets, J Physiol, 1963, 168:178-95) is used. The principle is based on the diffraction of the light by particles. When a light beam passes through a suspension of particles, it is diffracted, depending on the number and the size of the particles in suspension.
In the Born & Cross method, a light beam passes through a platelet suspension and the quantity of light is measured by a detector placed after the sample. Upon platelet aggregation, the size of platelet aggregates will increase while the total number of free platelets will decrease. Consequently, less light will be diffracted and the detector will record an increase in light intensity. The aggregometer has been developed based on these concepts. Variations in light transmission recorded by this device reflects the platelet physiology. When an agonist of platelet aggregation is added to a platelet suspension, platelets undergo activation and shape change. This step is characterized by an increase in platelet's apparent volume and thus a decrease of transmitted light. Subsequent platelet aggregation gradually forms aggregates of increasing size. Transmitted light slightly increases until a plateau is reached. The aggregation of platelet can be confirmed after the experiment by visual direct inspection of the test tube.
Preparation of platelet suspension is achieved by blood centrifugation at 160 g for 10 minutes. The PRP is re-centrifuged at 160 g for 10 min to remove contaminating red and white blood cells. The supernatant which is collected contains the platelets rich plasma (PRP). The remaining blood is subsequently centrifuged at 900 g for 15 min in order to retrieve plasma (platelets poor plasma, PPP). PRP is diluted with PPP to reach a final concentration of 150×10^3 […] PRP is kept warmed at 37° C. in the aggregometer and the adequate dilution of drug to test is introduced in the sample. Platelet aggregation is induced after 10 minutes incubation. Light transmission (T) is measured throughout the experiment, which is ended 8 minutes after induction of aggregation. Maximal light transmission (Tmax) is determined in the sample without drugs. Minimal light transmission (Tmin) is measured in PRP without inducer.
The effect of NTP4 and the previously identified lead TP antagonist, TP20, on U46619-mediated platelet aggregation in side-by-side comparisons was performed in platelet rich plasma (PRP) using the PAP-8E platelet aggregometer.
FIG. 4A-4C show the effect of TP20 & NTP4 on U46619-mediated platelet aggregation. PRP was prepared from blood taken from healthy volunteers into syringes containing 3.8% sodium citrate and 10 μM indomethacin such that the final ratio of anticoagulant to blood was 1:9. Aliquots of PRP (300 μl) were pre-incubated for 10 min with the TP antagonists, TP20 and NTP4, where 2-fold serial dilutions from 1 μM were prepared for each, prior to stimulating platelets with 1 μM U46619, incubated at 37° C., with stirring. FIG. 4A and FIG. 4B: Representative dose-response platelet aggregation profiles for TP20 (FIG. 4A) and NTP4 (FIG. 4B), where data is presented as Percentage Aggregation, as determined by changes in light transmission using the PAP-8E Platelet Aggregation Profiler as a function of time. FIG. 4C: The dose-response curves for platelet aggregation are presented as the mean (±S.E.M.) maximum Percentage Aggregation as a function of the log of the TP antagonist concentration. Data presented is representative of ≧6 independent experiments.

human platelets [2] = assay: ADP-induced platelet aggregation of human platelets ex vivo; assay type: cell-based
Excerpt: (§6) The method of assessing platelet aggregation also allows evaluation of the effect of the compounds of the invention on platelet aggregation upon stimulation by other agonists, e.g., adenosine diphosphate (ADP) and thrombin.

human platelets [3] = assay: Thrombin-induced platelet aggregation of human platelets ex vivo; assay type: cell-based
Excerpt: as §6

[4] = test system: A/Puerto Rico/8/1934 (H1N1) influenza A virus; assay type: in vivo, BALB/c mice
[5] = lung, Day 4, Tamiflu 10 mg/kg, TP20 0.36 mg/kg
[6] = lung, Day 4, number of animals of 3

T2 sequence (P21731 1-407 isoform P21731-2): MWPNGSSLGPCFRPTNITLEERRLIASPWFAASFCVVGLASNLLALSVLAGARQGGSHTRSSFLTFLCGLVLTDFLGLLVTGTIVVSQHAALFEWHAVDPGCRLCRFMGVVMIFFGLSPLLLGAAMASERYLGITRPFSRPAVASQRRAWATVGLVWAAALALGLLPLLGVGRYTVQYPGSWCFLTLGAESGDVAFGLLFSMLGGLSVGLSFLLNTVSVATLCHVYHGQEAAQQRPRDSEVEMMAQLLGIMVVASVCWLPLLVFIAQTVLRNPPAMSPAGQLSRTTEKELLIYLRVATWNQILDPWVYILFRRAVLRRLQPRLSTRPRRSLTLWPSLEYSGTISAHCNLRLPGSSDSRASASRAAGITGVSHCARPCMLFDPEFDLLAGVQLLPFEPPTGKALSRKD

COc1cccc(Oc2ccc([N+](=O)[O-])cc2S(=O)(=O)NC(=O)NC(C)(C)C)c1 [Compound 9h, reference compound]
IC50 (TPα): 612 nM
TPα:TPβ Selectivity Ratio (TPα): 2.3
IC50 (TPβ): 270 nM
IC50 (human platelets [1]; Homo sapiens, Platelet): 513 nM

Cc1ccc(-c2cccc(Oc3ccc([N+](=O)[O-])cc3S(=O)(=O)NC(=O)NC(C)(C)C)c2)cc1 [XLI]
effect on ADP-induced platelet aggregation (human platelets [2]): did not affect
IC50 (TPα): 106 nM
TPα:TPβ Selectivity Ratio (TPα): 6.4
IC50 (TPβ): 16.5 nM
IC50 (human platelets [1]; Homo sapiens, Platelet): 230 nM
effect on thrombin-induced platelet aggregation (human platelets [3]): did not affect

CC(=O)c1ccc(-c2cccc(Oc3ccc([N+](=O)[O-])cc3S(=O)(=O)NC(=O)NC(C)(C)C)c2)cc1 [XLV]
effect on ADP-induced platelet aggregation (human platelets [2]): did not affect
IC50 (TPα): 186 nM
TPα:TPβ Selectivity Ratio (TPα): 5.5
IC50 (TPβ): 33.7 nM
IC50 (human platelets [1]; Homo sapiens, Platelet): 159 nM
effect on thrombin-induced platelet aggregation (human platelets [3]): did not affect

CCOC(=O)C1=C[C@@H](OC(CC)CC)[C@H](NC(C)=O)[C@@H](N)C1 [Tamiflu]
survival over the study ([4]; Tamiflu 10 mg/kg, TP20 360 μg/kg, 14 days): survived the full duration
Alveolar Acute Inflammation, number of animals with the finding ([4]; lung, Day 4, 3 animals): (1)
Bronchiolar Erosion, number of animals with the finding ([4]; lung, Day 4, 3 animals): (3)
Bronchiolar Exudate, number of animals with the finding ([4]; lung, Day 4, 3 animals): (3)
Bronchiolar acute Inflammation, number of animals with the finding ([4]; lung, Day 4, 3 animals): (3)
Vascular Necrosis, number of animals with the finding ([4]; lung, Day 4, 3 animals): (0)
Extent of Perivascular Edema (Mean ± S.E.M.), Per Animal [4, 5]: 21.2 ± 1.71 (52) arbitrary units and 20.7 ± 1.21 (66) arbitrary units and 19.3 ± 1.24 (77) arbitrary units
Extent of Perivascular Edema (Mean ± S.E.M.), Per Treatment Group [4, 5]: 20.6 ± 0.90 arbitrary units
reduction in the perivascular edema compared to vehicle [4, 5]: does not reduce the extent of perivascular edema
Alveolar Acute Inflammation, Minimal [4, 6]: 1
Bronchiolar Erosion, Mild [4, 6]: 2
Bronchiolar Erosion, Minimal [4, 6]: 0
Bronchiolar Erosion, Moderate [4, 6]: 1
Bronchiolar Exudate, Mild [4, 6]: 2
Bronchiolar Exudate, Minimal [4, 6]: 1
Bronchiolar Exudate, Moderate [4, 6]: 0
Bronchiolar acute Inflammation, Mild [4, 6]: 3
Bronchiolar acute Inflammation, Minimal [4, 6]: 0
Perivascular Edema, Mild [4, 6]: 1
Perivascular Edema, Minimal [4, 6]: 1
Day of Minimum Body Weight Recorded, Mean (Mean Day to Recovery) ([4]; mouse, in vivo): 8.4
Day of Minimum Body Weight Recorded, per animal ([4]; mouse, in vivo): 9 (7×) and 7 (3×)
Perivascular Edema, number of animals with the finding ([4]; mouse, in vivo): (2)
Weight @ Day 0 ([4]; n = 10/group): 17.56 ± 0.18
Weight @ Day 14 ([4]; n = 10/group): 17.4 ± 0.32

O=C(O)CCC/C=C\CC1C2CCC(O2)C1CNNC(=O)Nc1ccccc1 (stereo not shown) [SQ29,548, reference compound]
IC50 (human platelets [1]; Homo sapiens, Platelet): 8.33 nM

COC(=O)c1ccc(-c2cccc(Oc3ccc([N+](=O)[O-])cc3S(=O)(=O)NC(=O)NC(C)(C)C)c2)cc1 [XLVI]
effect on ADP-induced platelet aggregation (human platelets [2]): did not affect
IC50 (TPα): 114 nM
TPα:TPβ Selectivity Ratio (TPα): 3
IC50 (TPβ): 36.5 nM
IC50 (human platelets [1]; Homo sapiens, Platelet): 4.12 nM
effect on thrombin-induced platelet aggregation (human platelets [3]): did not affect

N-(tert-butylcarbamoyl)-2-(3-methoxyphenoxy)-5-nitrobenzenesulfonamide [Compound 9ag, reference compound]
IC50 (TPα): 1750 nM
TPα:TPβ Selectivity Ratio (TPα): 4.5
IC50 (TPβ): 379 nM
IC50 (human platelets [1]): 985 nM

CC(C)(C)NC(=O)NS(=O)(=O)c1cc([N+](=O)[O-])ccc1Oc1cccc(-c2ccc(C(F)(F)F)cc2)c1 [XII]
effect on ADP-induced platelet aggregation (human platelets [2]): did not affect
IC50 (TPα): 89.8 nM
TPα:TPβ Selectivity Ratio (TPα): 1
IC50 (TPβ): 86 nM
IC50 (human platelets [1]; Homo sapiens, Platelet): 129 nM
effect on thrombin-induced platelet aggregation (human platelets [3]): did not affect
